These antisense oligonucleotides have a phosphorothioate backbone; sugars and methylation of C are not fully specified. Bounds are passed on as bounds.
Note: test concentration or dose not given here.

One data set concerns the target TFRC. The conditions noted are these: ASO.
In the case of AAACAAGTCTACCGTTCT, the remaining target (mRNA or protein) (fraction of control) was not below 1.

Sequence AAACCTTGAAGTTGCTGG gave a remaining target (mRNA or protein) (fraction of control) of 0.93.

AACTGGTTCTCTTTCAAT returned a remaining target (mRNA or protein) (fraction of control) of 0.95.

AAGCTGCTGCCTAAAGAC: the remaining target (mRNA or protein) (fraction of control) is not below 1.

As for AATTATGGGAAACACTGT, the remaining target (mRNA or protein) (fraction of control) is not below 1.

Sequence ACACTGCTCCCGATAATG came in with a remaining target (mRNA or protein) (fraction of control) not below 1.

ACGCCAGACTTTGCTGAG had a remaining target (mRNA or protein) (fraction of control) of 0.38.

In turn, ACTGACCAGCGACCTCTG returned a remaining target (mRNA or protein) (fraction of control) of 0.58.

In the case of AGACCAGCCCTTAGGATT, the remaining target (mRNA or protein) (fraction of control) turned out to be 0.56.

As to AGAGGCAGTTCCCATTAC, the remaining target (mRNA or protein) (fraction of control) turned out to be 0.46.

The sequence AGATCCCTCACAAATGAA showed a remaining target (mRNA or protein) (fraction of control) not below 1.

AGCTATGGGTATCACATT registered a remaining target (mRNA or protein) (fraction of control) not below 1.

On to AGGAAACCTGCTACATTC, for which the remaining target (mRNA or protein) (fraction of control) is not below 1.

Take AGTCCAAGATAAAAGAGG: the remaining target (mRNA or protein) (fraction of control) is not below 1.

ATAGCAGATACTTCCACT: the remaining target (mRNA or protein) (fraction of control) came out at 0.96.

ATATTGAGCCTGTTAGCA yielded a remaining target (mRNA or protein) (fraction of control) of 0.95.

In turn, ATCTCAGTGCCAAAAGGA came in with a remaining target (mRNA or protein) (fraction of control) not below 1.

ATTAAGTAGAGGACCTGG yielded a remaining target (mRNA or protein) (fraction of control) of 0.66.

ATTCTTATCTGGTCAGTG showed a remaining target (mRNA or protein) (fraction of control) not below 1.

As for ATTCTTGCTTTCTGAGGT, the remaining target (mRNA or protein) (fraction of control) is not below 1.

CAAAGTAAGCGAACCACT registered a remaining target (mRNA or protein) (fraction of control) not below 1.

The sequence CAACCCTAACTGTAGAAA came in with a remaining target (mRNA or protein) (fraction of control) not below 1.

CACAGCAATAGTCCCATA yielded a remaining target (mRNA or protein) (fraction of control) of 0.67.

CACCCGAACCAGGAATCT had a remaining target (mRNA or protein) (fraction of control) not below 1.

The sequence CACGAGGGTCGGTGTAGT had a remaining target (mRNA or protein) (fraction of control) not below 1.

For CACTTTGTTCAACTCAGG, the remaining target (mRNA or protein) (fraction of control) was not below 1.

For the sequence CAGCAAGTTTCATCTCCA, the remaining target (mRNA or protein) (fraction of control) was 0.83.

In the case of CAGCCCCGCAGGATGAAG, the remaining target (mRNA or protein) (fraction of control) is not below 1.

Sequence CATGTCCAAAGAATGAAA had a remaining target (mRNA or protein) (fraction of control) of 0.95.

The sequence CATTCTGAACTGCCACAC came in with a remaining target (mRNA or protein) (fraction of control) of 0.62.

Regarding CCAATCATAAATCCAATC, the remaining target (mRNA or protein) (fraction of control) is not below 1.

Sequence CCACGAGCAGAATACAGC displayed a remaining target (mRNA or protein) (fraction of control) not below 1.

Sequence CCCTGCTCTGACAATCAC showed a remaining target (mRNA or protein) (fraction of control) of 0.9.

Turning to CCGAGATGGTGGAAACTG, the remaining target (mRNA or protein) (fraction of control) was not below 1.

In turn, CCGCCACAGCCCCTTCCC displayed a remaining target (mRNA or protein) (fraction of control) of 0.95.

CCTCCGTCCCGAGCCGCC gave a remaining target (mRNA or protein) (fraction of control) of 0.43.

As for CGCTTTCCCGCTCCCCGT, the remaining target (mRNA or protein) (fraction of control) was not below 1.

Turning to CGGATGCTTCACATTTTG, the remaining target (mRNA or protein) (fraction of control) was not below 1.

With CGGTTCCTGCCAGTCTCT, the remaining target (mRNA or protein) (fraction of control) is 0.54.

For CTACCCCTTTACAATAGC, the remaining target (mRNA or protein) (fraction of control) was 0.96.

CTCATTGGCAAGAAAACA displayed a remaining target (mRNA or protein) (fraction of control) of 0.94.

Consider CTCCGACAACTTTCTCTT, for which the remaining target (mRNA or protein) (fraction of control) is not below 1.

As to CTCTGGAGATTGTCTGGA, the remaining target (mRNA or protein) (fraction of control) came to 0.76.

As for CTGAAGAGACCCTATGAA, the remaining target (mRNA or protein) (fraction of control) amounted to 0.97.

Turning to CTGGCTCCTCCCTCACTG, the remaining target (mRNA or protein) (fraction of control) came out at 0.75.

For CTGTGCTGTCCAGTTTCT, the remaining target (mRNA or protein) (fraction of control) came to 0.9.

GAACTAAATGGAGGCTTA had a remaining target (mRNA or protein) (fraction of control) not below 1.

Sequence GAAGCCCGCACTCACACT yielded a remaining target (mRNA or protein) (fraction of control) of 0.8.

Turning to GCGGCTCCCTATGGCTGC, the remaining target (mRNA or protein) (fraction of control) was not below 1.

GGAAACTGAGTGTGATTG gave a remaining target (mRNA or protein) (fraction of control) not below 1.

In turn, GGAAAGGGAAAGCAGCAT returned a remaining target (mRNA or protein) (fraction of control) of 0.95.

GGGTTTTATTAGCAGATG registered a remaining target (mRNA or protein) (fraction of control) not below 1.

Regarding GGTTTCTGAACAGCGTTT, the remaining target (mRNA or protein) (fraction of control) is not below 1.

GTCTCCAGCACTCCAACT came in with a remaining target (mRNA or protein) (fraction of control) not below 1.

In turn, GTCTGTTTTCTCAGCATT registered a remaining target (mRNA or protein) (fraction of control) not below 1.

Another data set concerns the target CD44. The conditions noted are these: ASO.
As for ATCCAGGGACTGTCTTCG, the remaining target (mRNA or protein) (fraction of control) is not below 1.

ATCCATAGCACACCCGAG yielded a remaining target (mRNA or protein) (fraction of control) not below 1.

In the case of CAACGGTTGTTTCTTTCC, the remaining target (mRNA or protein) (fraction of control) was not below 1.

For CAAGGTGCTATTGAAAGC, the remaining target (mRNA or protein) (fraction of control) was 0.92.

CAGGGATTAGGCTATGGA had a remaining target (mRNA or protein) (fraction of control) not below 1.

Regarding CCAACCTCAGTGGAAAGC, the remaining target (mRNA or protein) (fraction of control) is not below 1.

As for CCACATGCCCTTCTATGA, the remaining target (mRNA or protein) (fraction of control) worked out at 0.9.

CCATTTCCTGAGACTTGC: the remaining target (mRNA or protein) (fraction of control) is not below 1.

The sequence CCCACACCTTCTTCGACT displayed a remaining target (mRNA or protein) (fraction of control) of 0.94.

For CCTTTGGTGTCTCCCAGA, the remaining target (mRNA or protein) (fraction of control) was not below 1.

Take CGATCTGCGCCAGGCTCA: the remaining target (mRNA or protein) (fraction of control) was determined as 0.72.

As for CGGAGCGAACGGAGGGCG, the remaining target (mRNA or protein) (fraction of control) was not below 1.

As for CGTCCGAGAGATGCTGTA, the remaining target (mRNA or protein) (fraction of control) came out at 0.52.

In turn, CGTTGAGTCCACTTGGCT yielded a remaining target (mRNA or protein) (fraction of control) not below 1.

For CTCAGCGGCACGAGGCAG, the remaining target (mRNA or protein) (fraction of control) was determined as 0.91.

Regarding CTGGACATAGCGGGTGCC, the remaining target (mRNA or protein) (fraction of control) was not below 1.

With CTGTCTTCGTCTGGGATG, the remaining target (mRNA or protein) (fraction of control) was not below 1.

For CTGTGCTGTCGGTGATCC, the remaining target (mRNA or protein) (fraction of control) was not below 1.

Sequence CTTGTTCACCAAATGCAC displayed a remaining target (mRNA or protein) (fraction of control) not below 1.

In turn, GAAAGCCTTGCAGAGGTC registered a remaining target (mRNA or protein) (fraction of control) of 0.9.

Sequence GACGACTCCTTGTTCACC registered a remaining target (mRNA or protein) (fraction of control) not below 1.

Regarding GACTGTTGACTGCAATGC, the remaining target (mRNA or protein) (fraction of control) is not below 1.

For the sequence GACTTGCTGGCCTCTCCG, the remaining target (mRNA or protein) (fraction of control) is not below 1.

The sequence GATTAGGCTATGGAAGGG gave a remaining target (mRNA or protein) (fraction of control) not below 1.

Sequence GCAAGAATCAAAGCCAAG came in with a remaining target (mRNA or protein) (fraction of control) not below 1.

Take GCCATTCTGGAATTTGGG: the remaining target (mRNA or protein) (fraction of control) is not below 1.

Consider GCCTCCAAGTGGAACTGA, for which the remaining target (mRNA or protein) (fraction of control) amounted to 0.99.

GCGGCAGGTTATATTCAA: the remaining target (mRNA or protein) (fraction of control) was not below 1.

Sequence GCTGCTCCTTTCACTGGA returned a remaining target (mRNA or protein) (fraction of control) of 0.9.

GGCACGAGGCAGAGTCCC displayed a remaining target (mRNA or protein) (fraction of control) not below 1.

Sequence GGCAGGTCTGTGACTGAT displayed a remaining target (mRNA or protein) (fraction of control) not below 1.

GGCCTCTCCGTTGAGTCC: the remaining target (mRNA or protein) (fraction of control) was not below 1.

In turn, GGCTTTCTGTCCTCCACA displayed a remaining target (mRNA or protein) (fraction of control) not below 1.

For the sequence GGGCCCTAATTTACAAAG, the remaining target (mRNA or protein) (fraction of control) amounted to 0.88.

In turn, GGTTATGTTTCCAACGGT displayed a remaining target (mRNA or protein) (fraction of control) not below 1.

GGTTGGCGATCAGGAATA gave a remaining target (mRNA or protein) (fraction of control) not below 1.

Turning to GTCCTCCACAGCTCCATT, the remaining target (mRNA or protein) (fraction of control) is not below 1.

Sequence GTCTCCCAGAAGCATCTG yielded a remaining target (mRNA or protein) (fraction of control) not below 1.

Turning to GTGGAGCTGAAGCATTGA, the remaining target (mRNA or protein) (fraction of control) is not below 1.

In the case of GTGGGCAAGGTGCTATTG, the remaining target (mRNA or protein) (fraction of control) was not below 1.

Regarding GTGTTGTTTGCTGCACAG, the remaining target (mRNA or protein) (fraction of control) is not below 1.

For GTTGTGTTTGCTCCACCT, the remaining target (mRNA or protein) (fraction of control) was 0.92.

On to GTTTCCAACGGTTGTTTC, for which the remaining target (mRNA or protein) (fraction of control) was not below 1.

TAAGTGTCCCAGCTCCCT yielded a remaining target (mRNA or protein) (fraction of control) of 0.98.

In the case of TACACCTGCAAAGCGGCA, the remaining target (mRNA or protein) (fraction of control) was not below 1.

For the sequence TAGCGGGTGCCATCACGG, the remaining target (mRNA or protein) (fraction of control) was not below 1.

As for TCAAAGGACTGATCCAGG, the remaining target (mRNA or protein) (fraction of control) is not below 1.

The sequence TCATGTCCACATTCTGCA returned a remaining target (mRNA or protein) (fraction of control) of 0.81.

Consider TCCACTTGGCTTTCTGTC, for which the remaining target (mRNA or protein) (fraction of control) was not below 1.

TCCATCAAAGGCATTGGG came in with a remaining target (mRNA or protein) (fraction of control) not below 1.

TCCCAGCTCCCTGTAATG returned a remaining target (mRNA or protein) (fraction of control) not below 1.

With TCTCCATCTGGGCCATTG, the remaining target (mRNA or protein) (fraction of control) is not below 1.

With TCTTCTGCCCACACCTTC, the remaining target (mRNA or protein) (fraction of control) was not below 1.

TCTTGGTCTCTGGTAGCA returned a remaining target (mRNA or protein) (fraction of control) not below 1.

Take TGACTGCAATGCAAACTG: the remaining target (mRNA or protein) (fraction of control) is not below 1.

For TGAGACTTGCTGGCCTCT, the remaining target (mRNA or protein) (fraction of control) amounted to 0.93.

Consider TGCAGAGGTCAGCGGCCT, for which the remaining target (mRNA or protein) (fraction of control) was not below 1.

Sequence TGCTATTGAAAGCCTTGC had a remaining target (mRNA or protein) (fraction of control) not below 1.

Consider TGGGAGGTGTTGTATGTG, for which the remaining target (mRNA or protein) (fraction of control) is not below 1.

Turning to TGGTAGCAGGGATTCTGT, the remaining target (mRNA or protein) (fraction of control) was not below 1.

In turn, TTGACTCCCATGTGAGTG showed a remaining target (mRNA or protein) (fraction of control) not below 1.

For TTGCTCCACCTTCTTGAC, the remaining target (mRNA or protein) (fraction of control) is not below 1.

The sequence TTTCCTCCCAGGGACCAG returned a remaining target (mRNA or protein) (fraction of control) not below 1.

Regarding TTTGCTGCACAGATGGAG, the remaining target (mRNA or protein) (fraction of control) was not below 1.

The values are drawn from the OligoGym collection.
